Test results from the supplement of paper PMC4932681.
Where “and” joins values, the source holds several entries; their conditions need not be identical. Identical values can stand only once.

Columns and labels:
ZR-75-1 Tam1 [1] = test: drug sensitivity score (DSS) (DSS (dimensionless)); higher = more sensitive; extreme values may be limits of the assay; settings: 4-OH-tamoxifen in medium 1 µM; 72 h
Summary of the method: (§1)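 CellTiter-Glo viability was the readout, taken on a PHERAstar and normalised to vehicle-only and positive controls. It was measured after breast cancer cell lines and their resistant derivatives spent 72 h at 37 °C in 384-well plates containing library drugs at five concentrations spanning a 10 000-fold range, with 1 μM of the selecting drug in the medium of resistant lines. From logistic dose–response fits in the Breeze pipeline came drug sensitivity score, relative IC50 (curve midpoint) and top-dose inhibition.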

ZR-75-1 Tam2 [2] = test: as above; settings: 4-OH-tamoxifen in medium 1 µM; 72 h
Summary of the method: as §1

BT-474 [3] = test: as above; settings: 72 h
Summary of the method: as §1

T-47D Tam2 [4] = test: as above; settings: 4-OH-tamoxifen in medium 1 µM; 72 h
Summary of the method: as §1

T-47D Tam1 [5] = test: as above; settings: 4-OH-tamoxifen in medium 1 µM; 72 h
Summary of the method: as §1

MCF-7 Tam1 [6] = test: as above; settings: 4-OH-tamoxifen in medium 1 µM; 72 h
Summary of the method: as §1

MCF-7 [7] = test: as above; settings: 72 h
Summary of the method: as §1

T-47D [8] = test: as above; settings: 72 h
Summary of the method: as §1

BT-474 Tam2 [9] = test: as above; settings: 4-OH-tamoxifen in medium 1 µM; 72 h
Summary of the method: as §1

BT-474 Tam1 [10] = test: as above; settings: 4-OH-tamoxifen in medium 1 µM; 72 h
Summary of the method: as §1

ZR-75-1 [11] = test: as above; settings: 72 h
Summary of the method: as §1

ZR-75-1 Tam1 [12] = test: relative IC50 (midpoint of fitted logistic curve, plateau may be below 50% inhibition; CellTiter-Glo viability); higher = less potent; settings: 4-OH-tamoxifen in medium 1 µM; 72 h
Summary of the method: as §1

ZR-75-1 Tam2 [13] = test: as above; settings: 4-OH-tamoxifen in medium 1 µM; 72 h
Summary of the method: as §1

BT-474 [14] = test: as above; settings: 72 h
Summary of the method: as §1

T-47D Tam2 [15] = test: as above; settings: 4-OH-tamoxifen in medium 1 µM; 72 h
Summary of the method: as §1

T-47D Tam1 [16] = test: as above; settings: 4-OH-tamoxifen in medium 1 µM; 72 h
Summary of the method: as §1

MCF-7 Tam1 [17] = test: as above; settings: 4-OH-tamoxifen in medium 1 µM; 72 h
Summary of the method: as §1

MCF-7 [18] = test: as above; settings: 72 h
Summary of the method: as §1

BT-474 Tam2 [19] = test: as above; settings: 4-OH-tamoxifen in medium 1 µM; 72 h
Summary of the method: as §1

BT-474 Tam1 [20] = test: as above; settings: 4-OH-tamoxifen in medium 1 µM; 72 h
Summary of the method: as §1

ZR-75-1 [21] = test: as above; settings: 72 h
Summary of the method: as §1

T-47D [22] = test: as above; settings: 72 h
Summary of the method: as §1

| SMILES | drug sensitivity score (ZR-75-1 Tam1 [1]) | drug sensitivity score (ZR-75-1 Tam2 [2]) | drug sensitivity score (BT-474 [3]; 4-OH-tamoxifen in medium 0 µM) | drug sensitivity score (BT-474 [3]; 4-OH-tamoxifen in medium 1 µM) | drug sensitivity score (T-47D Tam2 [4]) | drug sensitivity score (T-47D Tam1 [5]) | drug sensitivity score (MCF-7 Tam1 [6]) | drug sensitivity score (MCF-7 [7]; 4-OH-tamoxifen in medium 0 µM) | drug sensitivity score (MCF-7 [7]; 4-OH-tamoxifen in medium 1 µM) | drug sensitivity score (T-47D [8]; 4-OH-tamoxifen in medium 0 µM) | drug sensitivity score (T-47D [8]; 4-OH-tamoxifen in medium 1 µM) | drug sensitivity score (BT-474 Tam2 [9]) | drug sensitivity score (BT-474 Tam1 [10]) | drug sensitivity score (ZR-75-1 [11]; 4-OH-tamoxifen in medium 0 µM) | drug sensitivity score (ZR-75-1 [11]; 4-OH-tamoxifen in medium 1 µM) | relative IC50 (ZR-75-1 Tam1 [12]) [nM] | relative IC50 (ZR-75-1 Tam2 [13]) [nM] | relative IC50 (BT-474 [14]; 4-OH-tamoxifen in medium 0 µM) [nM] | relative IC50 (BT-474 [14]; 4-OH-tamoxifen in medium 1 µM) [nM] | relative IC50 (T-47D Tam2 [15]) | relative IC50 (T-47D Tam1 [16]) | relative IC50 (MCF-7 Tam1 [17]) [nM] | relative IC50 (MCF-7 [18]; 4-OH-tamoxifen in medium 0 µM) [nM] | relative IC50 (MCF-7 [18]; 4-OH-tamoxifen in medium 1 µM) [nM] | relative IC50 (BT-474 Tam2 [19]) [nM] | relative IC50 (BT-474 Tam1 [20]) | relative IC50 (ZR-75-1 [21]; 4-OH-tamoxifen in medium 0 µM) [nM] | relative IC50 (ZR-75-1 [21]; 4-OH-tamoxifen in medium 1 µM) [nM] | relative IC50 (T-47D [22]; 4-OH-tamoxifen in medium 0 µM) [nM] | relative IC50 (T-47D [22]; 4-OH-tamoxifen in medium 1 µM) [nM] |
| --- | --- | --- | --- | --- | --- | --- | --- | --- | --- | --- | --- | --- | --- | --- | --- | --- | --- | --- | --- | --- | --- | --- | --- | --- | --- | --- | --- | --- | --- | --- |
| CO[C@@H](C(=O)N1Cc2[nH]nc(NC(=O)c3ccc(N4CCN(C)CC4)cc3)c2C1)c1ccccc1 | 0 | 0 | 0 | 0 | 3.95 | 4.24 | 0 | 0 | 0 | 2.94 | 1.25 | 0 | 0 | 0 | 0 | > 10000 | > 10000 | > 10000 | > 10000 | 833 nM | 1030 nM | > 10000 | > 10000 | > 10000 | > 10000 | > 10000 nM | > 10000 | > 10000 |  |  |
| Cc1cc2c(F)c(Oc3ncnn4cc(OC[C@@H](C)O)c(C)c34)ccc2[nH]1 [Brivanib] | 0 | 0 | 0 | 0 | 0 | 0 | 0 | 0 | 0 | 0 | 0 | 0 | 0 | 0 | 0 | > 1000 | > 1000 | > 1000 | > 1000 | > 1000 nM | > 1000 nM | > 1000 | > 1000 | > 1000 | > 1000 |  | > 1000 | > 1000 | > 1000 | > 1000 |
| Cc1cn(-c2cc(NC(=O)c3ccc(C)c(Nc4nccc(-c5cccnc5)n4)c3)cc(C(F)(F)F)c2)cn1 [Nilotinib] | 0 | 0 | 0 | 0 | 0 | 0 | 0 | 0 | 0 | 0 | 0 | 0 | 1.63 | 0 | 0 | > 10000 | > 10000 | > 10000 | > 10000 | > 10000 nM | > 10000 nM | > 10000 | > 10000 | > 10000 | > 10000 |  | > 10000 | > 10000 | > 10000 | > 10000 |
| Cn1cncc1[C@@](N)(c1ccc(Cl)cc1)c1ccc2c(c1)c(-c1cccc(Cl)c1)cc(=O)n2C [Tipifarnib  (Zarnestra)] | 7.03 | 6.76 | 4.27 | 6.99 | 4.67 | 6.21 | 3.82 | 11 | 12.6 | 3.25 | 0.489 | 7.37 | 7.78 | 6.34 | 7.52 | 762 | 808 | 817 | 1650 | 877 nM | 862 nM | 1510 | 277 | 329 | 1410 | 1500 nM | 606 | 405 |  |  |
| COc1cc(CCc2cc(NC(=O)c3ccc(N4CC(C)NC(C)C4)cc3)n[nH]2)cc(OC)c1 (stereo not drawn) [AZD4547] | 0 | 0 | 0 | 0 | 0 | 0 | 0 | 0 | 0 | 0 | 0 | 0 | 0 | 0 | 0 | > 1000 | > 1000 | > 1000 | > 1000 | > 1000 nM | > 1000 nM | > 1000 | > 1000 | > 1000 | > 1000 |  | > 1000 | > 1000 | > 1000 | > 1000 |
| Cc1nc(Nc2ncc(C(=O)Nc3c(C)cccc3Cl)s2)cc(N2CCN(CCO)CC2)n1 [Dasatinib] | 0 | 0 | 0 | 0 | 8.11 and 4.97 | 8.54 and 7.6 | 0 |  |  | 0 |  |  | 2.9 and 1.26 | 0 | 0 | > 1000 | > 1000 | > 1000 | > 1000 | 9.43 nM and 16.4 nM | 10.3 nM and 10.7 nM | > 1000 | > 1000 | > 1000 | > 1000 | 130 nM and 374 nM | > 1000 | > 1000 | > 1000 | 41.6 |
| C=CCn1c(=O)c2cnc(Nc3ccc(N4CCN(C)CC4)cc3)nc2n1-c1cccc(C(C)(C)O)n1 [MK-1775] | 0 | 0 | 2.85 | 4.97 | 4.14 | 4.22 | 0 | 7.89 | 5.16 | 2.12 | 1.93 | 2.77 | 3.33 | 0.795 | 0.472 | > 10000 | > 10000 |  | 1040 | 1080 nM | 1120 nM | > 10000 | 369 | 553 | 857 | 1780 nM |  |  |  |  |
| CNC(=O)c1cc(Oc2ccc(NC(=O)Nc3ccc(Cl)c(C(F)(F)F)c3)cc2)ccn1 [Sorafenib] | 0 | 0 | 0 | 0 | 0 | 0 | 0 | 0 | 0 | 0 | 0 | 0 | 0.0104 | 0 | 0 | > 1000 | > 1000 | > 1000 | > 1000 | > 1000 nM | > 1000 nM | > 1000 | > 1000 | > 1000 | > 1000 |  | > 1000 | > 1000 | > 1000 | > 1000 |
